{"source": "patent US7258882B2", "about": "“System for maintaining fresh quality and safe food attributes of minimally processed produce” (priority 2002, dated 2007)", "test_system": "total aerobic population", "test": "Total aerobic plate count of washed, packaged and stored mushrooms", "text": "Mushrooms were either 1) untreated (unwashed), that is, left as picked; 2) sodium metabisulfite (sulfite treated) washed. Mushrooms were water rinsed with tap water for 2 seconds then processed through 2 consecutive dip tanks containing 500 ppm sodium metabisulfite in solution; or 3) Washed using the herein disclosed process (new wash) specifically as follows: Mushrooms were conveyed on a slotted conveyor belt and sprayed with tap water for 2 seconds. They dropped into a series of two dip tanks containing 3% (w/v) sodium erythorbate, 0.15% (w/v) disodium EDTA, 0.15% (w/v) calcium chloride. Total residence time was 30 seconds. The whole mushrooms were then treated by dipping in water containing 2 ppm ozone (15 second exposure) followed immediately by 10 second exposure to ultraviolet lamp. Half of the mushroom were sliced and again exposed to 10 seconds of ultraviolet lamp. The mushrooms were packaged and stored at either 35, 45 or 55 degrees Fahrenheit and analyzed microbiologically at day 0, 3, 6, and 9 for total aerobic plate count with a sensitivity of 1,000 cfu/gram, and day 3,6 and 9 for organoleptic properties including degree of whiteness, amount of veil opening, and overall salability/quality. Storage at 45 and 55 degrees Fahrenheit represent physiologically stressful conditions and will illustrate benefits of treatments to a greater extent than 35 degree F. storage. For all examples, data was analyzed statistically using single factor ANOVA and Student's T-test preparing two groups and assuming equal variances. All data was analyzed at 95% confidence levels. Mushrooms were either 1) Mushrooms were washed with water (2-3 second drench with tap water) then processed through 2 consecutive dip tanks containing an aqueous solution of 500 ppm sodium metabisulfite (sulfite treated); or 2) Washed using the herein disclosed process (new wash) specifically as follows: Mushrooms were conveyed on a slotted conveyor belt and sprayed with tap water for […]. They dropped into a series of two dip tanks containing 3% (w/v) sodium erythorbate, 0.15% (w/v) disodium EDTA, 0.15% (w/v) calcium chloride. Total residence time was 30 seconds. The whole mushrooms were then treated with 2 ppm ozone spray followed by 10 second exposure to ultraviolet lamp. Half of the mushroom were sliced and again exposed to 10 seconds of ultraviolet lamp. The mushrooms were packaged and stored at either 35, 45 or 55 degrees Fahrenheit. 35 degree F. stored samples were analyzed at day 0, 2, 6, and 9 and 14 for total aerobic plate count. Both 35 and 45 degree F. stored samples were analyzed on day 2, 6, 9 and 14 for organoleptic properties including degree of whiteness, amount of veil opening, and overall salability/quality. Storage at 45 degrees Fahrenheit represent physiologically stressful conditions and will illustrate benefits of treatments to a greater extent than 35 degree F. storage. Mushrooms were either 1) untreated (unwashed), that is, left as picked; 2)sodium metabisulfite (sulfite treated) washed. Mushrooms were water rinsed with tap water for 5 seconds then processed through 2 consecutive dip tanks containing 500 ppm sodium metabisulfite; or 3)Washed using the herein disclosed process (new wash) specifically as follows: Mushrooms were conveyed on a slotted conveyor belt and sprayed with tap water for 2 seconds. They dropped into a series of two dip tanks containing 3% (w/v) sodium erythorbate, 0.3% (w/v) sodium chloride, 0.3% (w/v) calcium chloride. Total residence time was 30 seconds. In the third treatment (new wash 1) the whole mushrooms were then treated with 2 ppm ozone spray followed immediately by 10 second exposure to ultraviolet lamp. New wash 2 mushrooms were treated as described above but was treated only with ozone, no ultraviolet light. New wash 3 mushrooms were treated with 7 seconds of ultraviolet light, no ozone. New wash 4 mushrooms were treated with ozone and ultraviolet light simultaneously. […]"}
{"smiles": "O=S([O-])S(=O)(=O)[O-].[Na+].[Na+]", "note": "[sulfite treated, sodium metabisulfite]", "values": [{"measurement": "Total plate count", "setting": "Experiment 1, 35 degrees Fahrenheit, sliced, Day 0", "value": "178,805 cfu/g"}, {"measurement": "Total plate count", "setting": "Experiment 1, 35 degrees Fahrenheit, sliced, Day 3", "value": "12,344,021 cfu/g"}, {"measurement": "Total plate count", "setting": "Experiment 1, 35 degrees Fahrenheit, sliced, Day 6", "value": 31345339, "unit": "cfu/g"}, {"measurement": "Total plate count", "setting": "Experiment 1, 35 degrees Fahrenheit, sliced, Day 9", "value": 383205051, "unit": "cfu/g"}, {"measurement": "Total plate count", "setting": "Experiment 1, 35 degrees Fahrenheit, whole, Day 0", "value": "299,999 cfu/g"}, {"measurement": "Total plate count", "setting": "Experiment 1, 35 degrees Fahrenheit, whole, Day 3", "value": "3,849,234 cfu/g"}, {"measurement": "Total plate count", "setting": "Experiment 1, 35 degrees Fahrenheit, whole, Day 6", "value": 20709887, "unit": "cfu/g"}, {"measurement": "Total plate count", "setting": "Experiment 1, 35 degrees Fahrenheit, whole, Day 9", "value": 31562526, "unit": "cfu/g"}, {"measurement": "Total plate count", "setting": "Experiment 1, 45 degrees Fahrenheit, sliced, Day 3", "value": "69,673,049 cfu/g"}, {"measurement": "Total plate count", "setting": "Experiment 1, 45 degrees Fahrenheit, whole, Day 3", "value": "216,318,555 cfu/g"}, {"measurement": "Total plate count", "setting": "Experiment 1, 55 degrees Fahrenheit, sliced, Day 3", "value": "381,362,639 cfu/g"}, {"measurement": "Total plate count", "setting": "Experiment 1, 55 degrees Fahrenheit, whole, Day 3", "value": "145,637,959 cfu/g"}, {"measurement": "Total plate count", "setting": "Experiment 2, 35 degrees Fahrenheit, sliced, Day 0", "value": "168,922 cfu/g"}, {"measurement": "Total plate count", "setting": "Experiment 2, 35 degrees Fahrenheit, sliced, Day 2", "value": "736,188 cfu/g"}, {"measurement": "Total plate count", "setting": "Experiment 2, 35 degrees Fahrenheit, sliced, Day 6", "value": "6,101,012 cfu/g"}, {"measurement": "Total plate count", "setting": "Experiment 2, 35 degrees Fahrenheit, sliced, Day 9", "value": "7,976,377 cfu/g"}, {"measurement": "Total plate count", "setting": "Experiment 2, 35 degrees Fahrenheit, sliced, Day 14", "value": "702,413,006 cfu/g"}, {"measurement": "Total plate count", "setting": "Experiment 2, 35 degrees Fahrenheit, whole, Day 0", "value": "24,188 cfu/g"}, {"measurement": "Total plate count", "setting": "Experiment 2, 35 degrees Fahrenheit, whole, Day 2", "value": "59,492 cfu/g"}, {"measurement": "Total plate count", "setting": "Experiment 2, 35 degrees Fahrenheit, whole, Day 6", "value": "428,579 cfu/g"}, {"measurement": "Total plate count", "setting": "Experiment 2, 35 degrees Fahrenheit, whole, Day 9", "value": "734,285 cfu/g"}, {"measurement": "Total plate count", "setting": "Experiment 2, 35 degrees Fahrenheit, whole, Day 14", "value": "253,940,711 cfu/g"}, {"measurement": "Total Plate Count Sliced", "setting": "Experiment 3, sliced, within 18 hours of processing", "value": "918,987 cfu/gram"}, {"measurement": "Total Plate Count Whole", "setting": "Experiment 3, whole, within 18 hours of processing", "value": "352,745 cfu/gram"}]}
